In ChEMBL document CHEMBL3779877, “Anticancer activity studies of cubebin isolated from Piper cubeba and its synthetic derivatives” (Bioorg Med Chem Lett, 2016):
The source made the active and inactive calls. No cut-off for these calls is given here.

Legend:
[1] = test system: K562; test: Cytotoxicity against human K562 cells assessed as reduction in viable cells after 48 hrs by MTT assay; type: functional, cell-based; details: K562, 48 h
[2] = test system: A549; test: Cytotoxicity against human A549 cells assessed as reduction in viable cells after 48 hrs by MTT assay; type: functional, cell-based; details: A549, 48 h
[3] = test system: SiHa; test: Cytotoxicity against human SiHa cells assessed as reduction in viable cells after 48 hrs by MTT assay; type: functional, cell-based
[4] = test system: KB; test: Cytotoxicity against human KB cells assessed as reduction in viable cells after 48 hrs by MTT assay; type: functional, cell-based
[5] = Cytotoxicity against human HCT116 cells assessed as reduction in viable cells after 48 hrs by MTT assay; type: functional, cell-based; details: HCT-116, 48 h
[6] = test system: HT-29; test: Cytotoxicity against human HT-29 cells assessed as reduction in viable cells after 48 hrs by MTT assay; type: functional, cell-based; details: HT-29, 48 h
[7] = test system: A549; test: Induction of apoptosis in human A549 cells assessed as cell shrinkage at cytotoxic IC50 after 48 hrs by inverted microscopic analysis; type: functional, cell-based
[8] = test system: A549; test: Induction of apoptosis in human A549 cells assessed as loss of normal nuclear architecture at cytotoxic IC50 after 48 hrs by inverted microscopic analysis; type: functional, cell-based
[9] = test system: A549; test: Induction of apoptosis in human A549 cells assessed as detached cells at cytotoxic IC50 after 48 hrs by inverted microscopic analysis; type: functional, cell-based
[10] = test system: A549; test: Induction of apoptosis in human A549 cells assessed as cell shrinkage at cytotoxic IC50 after 48 hrs by AO/EB dual staining based fluorescent microscopic analysis; type: functional
[11] = test system: A549; test: Induction of apoptosis in human A549 cells assessed as membrane blebbing at cytotoxic IC50 after 48 hrs by AO/EB dual staining based fluorescent microscopic analysis; type: functional, cell-based
[12] = test system: A549; test: Induction of apoptosis in human A549 cells assessed as chromosomal condensation at cytotoxic IC50 after 48 hrs by AO/EB dual staining based fluorescent microscopic analysis; type: functional, cell-based
[13] = test system: A549; test: Induction of apoptosis in human A549 cells assessed as condensed nuclei at cytotoxic IC50 after 48 hrs by Hoechst 33342 staining based fluorescent microscopic analysis; type: functional, cell-based
[14] = test system: A549; test: Induction of apoptosis in human A549 cells assessed as fragmented nuclei at cytotoxic IC50 after 48 hrs by Hoechst 33342 staining based fluorescent microscopic analysis; type: functional, cell-based
[15] = Cytotoxicity against human HCT116; type: functional; details: HCT-116
[16] = test system: KB; test: Induction of apoptosis in human KB cells assessed as cell shrinkage at cytotoxic IC50 after 48 hrs by inverted microscopic analysis; type: functional, cell-based
[17] = test system: KB; test: Induction of apoptosis in human KB cells assessed as loss of normal nuclear architecture at cytotoxic IC50 after 48 hrs by inverted microscopic analysis; type: functional, cell-based
[18] = test system: KB; test: Induction of apoptosis in human KB cells assessed as detached cells at cytotoxic IC50 after 48 hrs by inverted microscopic analysis; type: functional, cell-based
[19] = test system: KB; test: Induction of apoptosis in human KB cells assessed as cell shrinkage at cytotoxic IC50 after 48 hrs by AO/EB dual staining based fluorescent microscopic analysis; type: functional
[20] = test system: KB; test: Induction of apoptosis in human KB cells assessed as membrane blebbing at cytotoxic IC50 after 48 hrs by AO/EB dual staining based fluorescent microscopic analysis; type: functional, cell-based
[21] = test system: KB; test: Induction of apoptosis in human KB cells assessed as chromosomal condensation at cytotoxic IC50 after 48 hrs by AO/EB dual staining based fluorescent microscopic analysis; type: functional, cell-based
[22] = test system: KB; test: Induction of apoptosis in human KB cells assessed as condensed nuclei at cytotoxic IC50 after 48 hrs by Hoechst 33342 staining based fluorescent microscopic analysis; type: functional, cell-based
[23] = test system: KB; test: Induction of apoptosis in human KB cells assessed as fragmented nuclei at cytotoxic IC50 after 48 hrs by Hoechst 33342 staining based fluorescent microscopic analysis; type: functional, cell-based

SMILES | IC50 [1] [µM] | IC50 [2] [µM] | IC50 [3] [µM] | IC50 [4] [µM] | IC50 [5] [µM] | IC50 [6] [µM] | also measured
COc1cc([C@@H]2c3cc4c(cc3[C@@H](O[C@@H]3O[C@@H]5CO[C@@H](C)O[C@H]5[C@H](O)[C@H]3O)[C@H]3COC(=O)[C@H]23)OCO4)cc(OC)c1O [ETOPOSIDE] | 4.39 | – | – | – | – | – | –
O=C(NCCc1ccccc1)[C@@H](Cc1ccc2c(c1)OCO2)[C@@H](CO)Cc1ccc2c(c1)OCO2 | 7.91 | 7.28 | 57.5 | 7.09 | 7.83 | 58.9 | –
O=C1[C@@H](Cc2ccc3c(c2)OCO3)[C@H](Cc2ccc3c(c2)OCO3)C(=O)N1CCc1ccccc1 | 9.15 | > 100 | 96.3 | 62.6 | 64 | 66.5 | –
COc1ccc(CNC(=O)[C@@H](Cc2ccc3c(c2)OCO3)[C@@H](CO)Cc2ccc3c(c2)OCO3)cc1 | 8.37 | 6.61 | 91.5 | 9.17 | 46.1 | 51.1 | Activity [7]: Active; Activity [8]: Active; Activity [9]: Active; Activity [10]: Active; Activity [11]: Active; Activity [12]: Active; Activity [13]: Active; Activity [14]: Active
CC(C)CCNC(=O)[C@@H](Cc1ccc2c(c1)OCO2)[C@@H](CO)Cc1ccc2c(c1)OCO2 | 48.8 | 8.75 | 95.8 | 8.94 | 66.8 | 23.8 | –
OC[C@@H](Cc1ccc2c(c1)OCO2)[C@@H](CO)Cc1ccc2c(c1)OCO2 | 30.2 | 75.5 | > 100 | 7.82 | 85.3 | > 100 | –
O=C(NCc1ccc(C(F)(F)F)cc1)[C@@H](Cc1ccc2c(c1)OCO2)[C@@H](CO)Cc1ccc2c(c1)OCO2 | 8.86 | > 100 | 73.7 | 19.2 | > 100 | 64.9 | –
COc1cccc(CNC(=O)[C@@H](Cc2ccc3c(c2)OCO3)[C@@H](CO)Cc2ccc3c(c2)OCO3)c1 | 7.98 | 7.28 | 25.3 | 80.5 | > 100 | 25.5 | –
O=C(NCc1ccc(F)cc1)[C@@H](Cc1ccc2c(c1)OCO2)[C@@H](CO)Cc1ccc2c(c1)OCO2 | 7.76 | 8.94 | 80 | 33.8 | 34.1 | 24.6 | –
OC1OC[C@@H](Cc2ccc3c(c2)OCO3)[C@@H]1Cc1ccc2c(c1)OCO2 (some centres not stated) | 8.66 | 8.3 | > 100 | 8.16 | 45.1 | 45.2 | –
COc1cc([C@@H]2c3cc4c(cc3[C@H](O)[C@H]3COC(=O)[C@H]23)OCO4)cc(OC)c1OC [PODOFILOX] | – | – | – | – | – | – | IC50 [15]: 0.01 µM
O=C(NCc1ccccc1)[C@@H](Cc1ccc2c(c1)OCO2)[C@@H](CO)Cc1ccc2c(c1)OCO2 | 8.6 | 10.8 | > 100 | 9.16 | 93.5 | 68 | –
O=C1[C@@H](Cc2ccc3c(c2)OCO3)[C@H](Cc2ccc3c(c2)OCO3)C(=O)N1Cc1ccc(F)cc1 | > 100 | > 100 | > 100 | 8.95 | > 100 | 72.1 | –
CC(C)CCN1C(=O)[C@@H](Cc2ccc3c(c2)OCO3)[C@H](Cc2ccc3c(c2)OCO3)C1=O | > 100 | > 100 | 89.3 | 7.71 | 67.7 | 66.2 | –
O=C1[C@@H](Cc2ccc3c(c2)OCO3)[C@H](Cc2ccc3c(c2)OCO3)C(=O)N1Cc1ccccc1 | 8.88 | 58.6 | > 100 | 7.36 | 65.4 | 71.8 | –
COc1ccc(CN2C(=O)[C@@H](Cc3ccc4c(c3)OCO4)[C@H](Cc3ccc4c(c3)OCO4)C2=O)cc1 | 8.69 | 45.5 | 33.4 | 9.13 | > 100 | 72.6 | –
O=C1OC[C@@H](Cc2ccc3c(c2)OCO3)[C@@H]1Cc1ccc2c(c1)OCO2 | 9.07 | 7.86 | 68.4 | 7.68 | 72.6 | 35.7 | Activity [7]: Active; Activity [8]: Active; Activity [9]: Active; Activity [16]: Active; Activity [17]: Active; Activity [18]: Active; Activity [10]: Active; Activity [19]: Active; Activity [11]: Active; Activity [20]: Active; Activity [12]: Active; Activity [21]: Active; Activity [13]: Active; Activity [22]: Active; Activity [14]: Active; Activity [23]: Active
O=C(O)CC1OC[C@@H](Cc2ccc3c(c2)OCO3)[C@@H]1Cc1ccc2c(c1)OCO2 (some centres not stated) | 7.94 | 52.9 | > 100 | 73.9 | > 100 | > 100 | –
O=C(NCCO)[C@@H](Cc1ccc2c(c1)OCO2)[C@@H](CO)Cc1ccc2c(c1)OCO2 | 87.4 | > 100 | 85.2 | 7.96 | 45.2 | 51.1 | –
O=C(NCc1c[nH]c2ccccc12)[C@@H](Cc1ccc2c(c1)OCO2)[C@@H](CO)Cc1ccc2c(c1)OCO2 | > 100 | > 100 | > 100 | 6.38 | > 100 | 52.1 | Activity [16]: Active; Activity [17]: Active; Activity [18]: Active; Activity [19]: Active; Activity [20]: Active; Activity [21]: Active; Activity [22]: Active; Activity [23]: Active
